Data published in patent US20020010341A1, “Use of thioamide oxazolidinones for the treatment of bone resorption and osteoporosis” (priority 2000, published 2002).

Legend:
Format in all cases: in vivo
rats [1] = assay: 4-week oral toxicity study in rats with 4 and 8 week recovery
Experimental: (§1) The toxicity of the compound of Example 2 was evaluated in rats treated orally with 30, 60, 120, or 200 mg/kg/day of the compound of Example 2, water, or vehicle (containing 80% propylene glycol, 5% cremophor, and 30-mg/ml povidone) for 4 weeks given in 2 divided doses at 8 hours apart. Reversibility of drug-induced changes was determined 4 and 8 weeks following drug withdrawal. The pathogenesis of the bone changes was evaluated in a study in rats treated with 200 mg/kg/day for 3 or 7 days. TGF-betal protein levels in bone marrow supernatants and serum were determined using ELISA at the end of each of the dosing period. Toxicity was evaluated using clinical, hematological, biochemical, and pathologic end points.

rats [2] = assay: Pathogenesis of the bone changes, rats treated for 3 or 7 days; details: oral
Experimental: as §1

TGF-betal protein = TGF-betal protein levels in bone marrow supernatants and serum by ELISA; details: rats
Experimental: as §1

In the case of `CC(=S)NC[C@H]1CN(c2ccc(N3CC[S+]([O-])CC3)c(F)c2)C(=O)O1` [Example 2, (S)-N-[[3-[3-Fluoro-4-(4-thiomorpholinyl)phenyl] -2-oxo-5-oxazolidinyl]methyl]thio-acetamide, thiomorpholine S-oxide], the “persistence of newly formed bone spicules after drug withdrawal” value (rats [1]; 4 and 8 weeks after drug withdrawal) is reported as “still present after 4 and 8 weeks of drug withdrawal”, the bone marrow changes (rats [1]; oral) is reported as “did not show changes other than hypocellularity related to hematopoietic suppression” and the “bone mass and density of trabecular (spongy) bone of sternum, femur/tibia, vertebrae, basal cranium” value (rats [1]; oral, 120 and 200 mg/kg/day) is reported as “caused an increase in bone mass and density (hyperostosis)”. For the same compound, the “endosteal cortical bone formation” value (rats [1]; oral, 120 and 200 mg/kg/day) was “occurred rarely”, the toxic effects (rats [1]; oral, 120 and 200 mg/kg/day) was “anorexia, weight loss, GI effects, hematopoietic suppression and lymphoid depletion” and the “marrow cavity histology at Day 28” value (rats [1]; oral, Day 28) was “marrow cavities were traversed by abundant normal looking trabecular bone”. The clinical tolerability (rats [1]; oral, all doses but 200 mg/kg/day (30, 60, 120 mg/kg/day), 4 weeks, 2 divided doses) was “well tolerated clinically”, the “onset of hyperostosis (osteoblast proliferation, osteoid deposition)” value (rats [2]; 200 mg/kg/day for 3 or 7 days) was “became evident by Day 7” and the “osseous changes on Day 3” value (rats [2]; 200 mg/kg/day, Day 3) was “no significant osseous changes”. For the same compound, the “Serum TGF-beta I” value (TGF-betal protein; Day 3, ELISA) was “slightly but significantly decreased”, the “TGF-betal in marrow supernatants” value (TGF-betal protein; Day 3, ELISA) was “modestly but significantly increased” and the “TGF-betal in marrow supernatants” value (TGF-betal protein; Day 7 or 28, ELISA) was “not on Day 7 or 28”.
